Assays:
E. coli (Ec) = experiment: Broth microdilution minimum inhibitory concentration (MIC); type: cell-based; settings: Escherichia coli, E. coli; growth medium supplemented with sodium bicarbonate; read-out: E. coli + bicarb MIC
In short: (§1)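 CLSI broth microdilution with 8 two-fold compound dilutions in CAMHB, or CAMHB plus sodium bicarbonate (6.25 or 25 mM final) or heat-inactivated human serum (0–50%). Inoculum 5×10^4 CFU/well from 0.5 McFarland cultures grown at 35±2° C; tested in triplicate.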

P. aeruginosa (Pa) = experiment: as above; type: cell-based; settings: Pseudomonas aeruginosa, P. aeruginosa; growth medium supplemented with sodium bicarbonate; read-out: Pa MIC + bicarb
In short: as §1

A. baumannii (Ab) = experiment: as above; type: cell-based; settings: Acinetobacter baumannii; A. baumannii; growth medium supplemented with sodium bicarbonate; read-out: Ab + bicarb MIC
In short: as §1

E. faecalis (Ef) = experiment: as above; type: cell-based; settings: Enterococcus faecalis, E. faecalis; growth medium supplemented with sodium bicarbonate; read-out: Ef + bicarb MIC
In short: as §1

S. aureus (Sa) = experiment: as above; type: cell-based; settings: Staphylococcus aureus, S. aureus; growth medium supplemented with sodium bicarbonate; read-out: Sa + bicarb MIC
In short: as §1

[1] = tested on: E. coli S30 extract (bacterial protein synthesis); experiment: E. coli S30 extract coupled transcription-translation luciferase assay (inhibition of bacterial protein synthesis); type: biochemical; settings: class by IC50 or % inhibition @ 1 μM, read-out: S30 IC50 (μM/% inhib.)
In short: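 Cell-free coupled transcription-translation in E. coli S30 circular-DNA extract, with pBESTluc plasmid as template and complete amino acid mix. Eight 2-fold compound dilutions were incubated with the extract 1 h at 37 °C, chilled, then luciferase luminescence was read. % inhibition was taken relative to no-inhibitor wells; no-DNA wells gave background.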

[2] = molecular target: Rabbit Reticulocyte Lysate (eukaryotic protein synthesis); experiment: Rabbit reticulocyte lysate luciferase assay (inhibition of eukaryotic protein synthesis); type: biochemical; settings: class by IC50 or % inhibition @ 1 μM, read-out: Rabbit reticulocyte IC50 (μM/% inhib.)
In short: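 Nuclease-treated rabbit reticulocyte lysate translating luciferase control RNA, with complete amino acids, was incubated at 30° C. for 90 minutes with 2-fold serial compound dilutions. Luminescence was measured after adding luciferase reagent. % inhibition was relative to water controls, with no-RNA wells as background.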

SMILES | MIC (E. coli (Ec)) [µg/mL] | MIC (P. aeruginosa (Pa)) [µg/mL] | MIC (A. baumannii (Ab)) [µg/mL] | MIC (E. faecalis (Ef)) [µg/mL] | MIC (S. aureus (Sa)) [µg/mL] | IC50 [1] [µM] | IC50 [2] [µM]
C[C@@H]1CN(C(=O)C(C)(C)N)CCN1C(=O)Nc1ccn(-c2ccc(CN3CCC(CN)CC3)cc2)c(=O)n1 [Compound 82] | < 8 | > 32 | 8 to 32 | < 8 | < 8 | < 0.5 | > 1
C[C@@H]1CN(C(=O)C(C)(C)N)CCN1C(=O)Nc1ccn(-c2ccc(CCN3CCCC(N)CC3)cc2)c(=O)n1 (stereo partly shown) [Compound 90] | < 8 | > 32 | < 8 | < 8 | < 8 | < 0.5 | > 1
CC(N)C1CCN(Cc2ccc(-n3ccc(NC(=O)N4CCN(C(=O)C(C)(C)N)CC4)nc3=O)cn2)CC1 (stereo not shown) [Compound 95] | < 8 | > 32 | > 32 | > 32 | 8 to 32 | < 0.5 | > 1
CCC(N)C1CCCN(Cc2ccc(-n3ccc(NC(=O)N4CCN(C(=O)C(C)(C)N)CC4)nc3=O)cc2)C1 (stereo not shown) [Compound 110] | < 8 | > 32 | > 32 | 8 to 32 | < 8 | < 0.5 | > 1
CN(Cc1ccc(-n2ccc(NC(=O)N3CCN(C(=O)C(C)(C)N)CC3)nc2=O)cc1)CC1CNC1 [Compound 111] | 8 to 32 | > 32 | > 32 | > 32 | 8 to 32 | 0.5 to 1 | > 1
CC(C)(N)C(=O)N1CCN(C(=O)Nc2ccn(-c3ccc(CNCC4CNC4)cc3)c(=O)n2)CC1 [Compound 112] | 8 to 32 | > 32 | > 32 | > 32 | 8 to 32 | < 0.5 | > 1
CC(C)(N)C(=O)N1CCN(C(=O)Nc2ccn(-c3ccc(CN[C@@H]4CC[C@H](N)C4)cc3)c(=O)n2)CC1 [Compound 114] | < 8 | > 32 | > 32 | > 32 | > 32 | < 0.5 | > 1
CN(Cc1ccc(-n2ccc(NC(=O)N3CCN(C(=O)C(C)(C)N)CC3)nc2=O)cc1)[C@@H]1CC[C@H](N)C1 [Compound 115] | < 8 | > 32 | > 32 | 8 to 32 | < 8 | < 0.5 | > 1
CCN(Cc1ccc(-n2ccc(NC(=O)N3CCN(C(=O)C(C)(C)N)CC3)nc2=O)cc1)[C@@H]1CC[C@H](N)C1 [Compound 116] | < 8 | > 32 | > 32 | 8 to 32 | 8 to 32 | < 0.5 | > 1
CC(C)(N)C(=O)N1CCN(C(=O)Nc2ccn(-c3ccc(CN[C@H]4CC[C@H](N)CC4)cc3)c(=O)n2)CC1 [Compound 117] | < 8 | > 32 | > 32 | < 8 | < 8 | < 0.5 | > 1
CN(Cc1ccc(-n2ccc(NC(=O)N3CCN(C(=O)C(C)(C)N)CC3)nc2=O)cc1)[C@H]1CC[C@H](N)CC1 [Compound 118] | < 8 | 8 to 32 | 8 to 32 | < 8 | < 8 | < 0.5 | > 1
CCN(Cc1ccc(-n2ccc(NC(=O)N3CCN(C(=O)C(C)(C)N)CC3)nc2=O)cc1)[C@H]1CC[C@H](N)CC1 [Compound 119] | < 8 | < 8 | < 8 | < 8 | < 8 | < 0.5 | > 1
CC(C)(N)C(=O)N1CCN(C(=O)Nc2ccn(-c3ccc(CN[C@H]4CC[C@@H](N)CC4)cc3)c(=O)n2)CC1 [Compound 120] | < 8 | > 32 | > 32 | 8 to 32 | < 8 | < 0.5 | > 1
CN(Cc1ccc(-n2ccc(NC(=O)N3CCN(C(=O)C(C)(C)N)CC3)nc2=O)cc1)[C@H]1CC[C@@H](N)CC1 [Compound 121] | < 8 | > 32 | > 32 | < 8 | < 8 | < 0.5 | > 1
CCN(Cc1ccc(-n2ccc(NC(=O)N3CCN(C(=O)C(C)(C)N)CC3)nc2=O)cc1)[C@H]1CC[C@@H](N)CC1 [Compound 122] | < 8 | > 32 | > 32 | < 8 | < 8 | < 0.5 | > 1
CC(C)(N)C(=O)N1CCN(C(=O)Nc2ccn(-c3ccc(CN[C@H]4CC[C@H](N)C4)cc3)c(=O)n2)CC1 [Compound 123] | < 8 | > 32 | > 32 | > 32 | < 8 | < 0.5 | > 1
CN(Cc1ccc(-n2ccc(NC(=O)N3CCN(C(=O)C(C)(C)N)CC3)nc2=O)cc1)[C@H]1CC[C@H](N)C1 [Compound 124] | < 8 | > 32 | > 32 | < 8 | < 8 | < 0.5 | > 1
CCN(Cc1ccc(-n2ccc(NC(=O)N3CCN(C(=O)C(C)(C)N)CC3)nc2=O)cc1)[C@H]1CC[C@H](N)C1 [Compound 125] | < 8 | > 32 | > 32 | < 8 | < 8 | < 0.5 | > 1
CC(C)(N)C(=O)N1CCN(C(=O)Nc2ccn(-c3ccc(CNCC4CC(N)C4)cc3)c(=O)n2)CC1 (stereo not shown) [Compound 126] | < 8 | > 32 | > 32 | > 32 | 8 to 32 | < 0.5 | > 1
CN(Cc1ccc(-n2ccc(NC(=O)N3CCN(C(=O)C(C)(C)N)CC3)nc2=O)cc1)CC1CC(N)C1 (stereo not shown) [Compound 127] | < 8 | > 32 | > 32 | < 8 | < 8 | < 0.5 | > 1
CCN(Cc1ccc(-n2ccc(NC(=O)N3CCN(C(=O)C(C)(C)N)CC3)nc2=O)cc1)CC1CC(N)C1 (stereo not shown) [Compound 128] | < 8 | 8 to 32 | > 32 | < 8 | < 8 | < 0.5 | > 1
CC(C)CN(Cc1ccc(-n2ccc(NC(=O)N3CCN(C(=O)C(C)(C)N)CC3)nc2=O)cc1)[C@H]1CC[C@H](N)CC1 [Compound 129] | < 8 | 8 to 32 | < 8 | < 8 | < 8 | < 0.5 | > 1

Source: patent publication US12503452B2 (Curza Global, LLC, priority 2019, dated 2025)
